The numbers were not newly measured in patent publication US20120263714A1, “SUBSTITUTED HALOPHENOXYBENZAMIDE DERIVATIVES” (BAYER INTELLECTUAL PROPERTY GMBH, priority 2009, published 2012), which cites them from elsewhere.

The structures appear in SMILES notation.

For data set [1], the system named is MEK1/2. To be noted: MEK1/2 inhibitor, background statement.
Data set [2] deals with colon cancer. The following applies: oral treatment, mouse models.

On to `O=C(NOCC1CC1)c1ccc(F)c(F)c1Nc1ccc(I)cc1Cl` [CI-1040], for which, in data set [1], the IC50 result is recorded as “low nanomolar range”. Further, the “colon cancer growth in vivo” value in data set [2] is “inhibit colon cancer growth in vivo”.
